Legend:
[1] = test system: N. meningitidis 2C4.3 bacterial aggregates; experiment: microbe, parasite or virus in culture; format: cell-based, Neisseria meningitidis; settings: for effect on dispersion of meningococcal aggregates (in words): 0.5 to 80 μM, 30 min; for Concentration promoting efficient meningococcal dispersal (~80%): 30 min treatment, 0.5 to 80 μM tested; for EC80: Neisseria meningitidis, 0.5 h, read-out: Concentration promoting efficient meningococcal dispersal (~80%)
Procedure: N. meningitidis 2C4.3 was grown in liquid culture at 10^7 CFU/ml for 2 h to form bacterial aggregates and were treated with increasing concentrations of Trifluoperazine (10 to 40 μM), Gentamicin (150 μg/ml) or cefotaxim (20 μg/ml) for 20 minutes and bacterial aggregates were immediately visualized using a phase-contrast microscope. […] (B) Quantification of the bacterial aggregation was performed using Image J software.
N. meningitidis 2C4.3 wild type strain and the isogenic derivative mutant PilT ([…]PilT) were grown in liquid culture at 10^7 CFU/ml for 2 h to form bacterial aggregates and then treated with 50 μM Trifluoperazine. Time lapse phase-contrast video microscopy was performed to visualize the effect on bacterial aggregates over time. Images were taken at the indicated time points of the video.
N. meningitidis 2C4.3 was grown in liquid culture at 10^7 CFU/ml for 2 h to form bacterial aggregates and were treated with 30 μM Trifluoperazine for 30 minutes to induce bacterial dispersion or PBS as a control. The medium was replaced to remove the Trifluoperazine and the reformation of bacterial aggregates were visualized overtime using a phase-contrast microscope.
FIG. 7. […] Bacteria were grown in suspension for 2 h then Phenothiazine derivatives were added at the indicated concentrations.
N. meninigitidis 2C4.3 strain was grown in suspension in wells of a 24 well plate, containing 1 ml of DMEM medium supplemented with 10% heat-inactivated fetal calf serum. After 2 h of growth, Trifluoperazine (or control vehicle) was added at various concentrations ranging from 10 to 40 μM for 20 min and the bacterial aggregates were visualized over time using a phase-contrast microscope.
N. meninigitidis 2C4.3 strain was grown in suspension in wells of a 24 well plate, containing 1 ml of DMEM medium supplemented with 10% heat-inactivated fetal calf serum. After 2 h of growth, various concentrations (0.5 to 80 μM) of phenothiazine-derivative compounds or control vehicle (PBS or DMSO) were added to the wells for 30 min and the bacterial aggregates were visualized using a phase-contrast microscope.
Were tested phenothiazine-derivative compounds of: • the Piperazine group: Trifluoperazine (Sigma #T8516), Fluphenazine (Sigma #F4765), Prochlorperazine (Sigma #P9178) Perphenazine (Sigma #P6402); • the Piperidine group: Thioridazine (Sigma #T9025) and Mesoridazin (Sigma #M4068); • the Aliphatic group: Chlorpromazine (Sigma #C8138), Promazine (Sigma #P6656), Triflupromazine (Sigma #1686003) and levomepromazine (Sigma #L0500000).

[2] = test system: meningococcal colonization of the human dermal vasculature; experiment: In vivo infection of mice engrafted with human skin; settings: cefotaxime treatment
[3] = test system: Nm2C4.3 microcolonies on HBMEC; experiment: Dispersion of meningococcal microcolonies at the surface of infected human endothelial cells; format: cell-based, Neisseria meningitidis; settings: Cefotaxim 20 μg/ml
Procedure: Human […] microvascular endothelial cells (HBMEC) were infected with Nm2C4.3 for 1 h 30, treated with Trifluoperazine (10-40 μM) for 30 minutes, before fixation and immunofluorescence analysis using anti-Nm2C4.3 antibody and Alexa Fluor 633 Phalloidin. (A) Representative fluorescence microscopy showing bacterial colony (white dots) formed at the surface of the endothelial cells. (B) Quantification of the bacterial colonization was performed using Image J software.
HBMEC, a human endothelial cell line isolated from bone marrow capillaries (Schweitzer et al., 1997) were grown in Dulbecco's Modified Eagle Medium (DMEM) 4.5 g/L-Glutamax (ThermoFischer) 10% FBS. Cells were grown on Thermanox coverslips coated with gelatin 2% (BD Difco #214340) for 2 days to reach confluency. Cells were then infected with a suspension of Nm2C4.3 (˜10^7 CFU/ml) in DMEM/FBS during 30 minutes to allow bacterial adhesion. Cells were then washed three times with medium to remove non-adherent bacteria and infection was pursued for 1 h 30: adherent bacteria grew at the endothelial cell surface and formed micro-colonies. Trifluoperazine was then added to obtain final concentrations of 10, 20, 30 and 40 μM. After incubation for 30 minutes, cells were washed and fixed in 4% Paraformaldehyde for 10 min, washed three times with PBS, and permeabilized with 0.1% Triton X-100 in PBS for 10 min. Cells were blocked for 30 min with 3% BSA in PBS and were incubated for 2 h with the primary antibodies (Rabbit polyclonal anti-Nm2C4.3 strain, kindly provided by Dr X. Nassif, INEM, Paris). After three washes with PBS, cells were incubated for 1 h with […] anti-rabbit IgG (Jackson ImmunoResearch Laboratories), together with Alexa Fluor 633 Phalloidin (Thermofischer) and DAPI (0.5 mg ml-1, Sigma Aldrich) to stain Actin and nuclei, respectively. Labelled preparations were mounted in Glycergel media (DAKO) and image acquisitions were performed with a DM16000 microscope (Leica, X40). Quantification was done with ImageJ software (NIH). Results are presented as a vascular colonisation index corresponding to the area occupied by the fluorescently labelled bacteria per fields in relation to the area occupied by the fluorescently labelled human endothelial cells (Actin staining). Statistical analysis were performed with Student t test.

SMILES | effect on dispersion of meningococcal aggregates (in words) [1] | Concentration promoting efficient meningococcal dispersal (~80%) [1] | EC80 [1] | other results
CN(C)CCCN1c2ccccc2Sc2ccc(C(F)(F)F)cc21 [Triflupromazine] | no effects | No effect | – | –
CN1CCCCC1CCN1c2ccccc2Sc2ccc([S+](C)[O-])cc21 (stereo not shown) [Mesoridazine] | – | – | 6 µM | –
OCCN1CCN(CCCN2c3ccccc3Sc3ccc(C(F)(F)F)cc32)CC1 [Fluphenazine] | – | – | 40 µM | –
CN(C)CCCN1c2ccccc2Sc2ccc(Cl)cc21 [Chlorpromazine] | no effects | No effect | – | –
OCCN1CCN(CCCN2c3ccccc3Sc3ccc(Cl)cc32)CC1 [Perphenazine] | – | – | 40 µM | –
CN(C)CCCN1c2ccccc2Sc2ccccc21 [Promazine] | inhibited bacterial aggregation with better efficacy than Trifluoperazine | – | 10 µM | –
CO/N=C(\C(=O)N[C@@H]1C(=O)N2C(C(=O)O)=C(COC(C)=O)CS[C@H]12)c1csc(N)n1 [Cefotaxim] | – | – | – | increase of inflammatory response [2]: 2 fold; dispersion of bacterial aggregates formed in suspension ([1]; Cefotaxim 20 μg/ml, 20 minutes): did not significantly induce the dispersion; dispersion of microcolonies at the endothelial cell surface [3]: poorly induced the dispersion
CSc1ccc2c(c1)N(CCC1CCCCN1C)c1ccccc1S2 (stereo not shown) [Thioridazine] | – | – | 4 µM | –
CN1CCN(CCCN2c3ccccc3Sc3ccc(Cl)cc32)CC1 [Prochlorperazine] | – | – | 30 µM | –
COc1ccc2c(c1)N(C[C@H](C)CN(C)C)c1ccccc1S2 [Levomepromazine] | no effects | No effect | – | –

Reference: patent publication US20200054646A1, “USE OF PHENOTHIAZINE DERIVATIVE IN THE TREATMENT OF INFECTIOUS PURPURA OR PURPURA FULMINANS” (priority 2016, published 2020)
